Target: T1, ΔF508-CFTR (Homo sapiens, UniProt P13569, DEL508-508)
T1 construct: expressed in transfected cells
Assay: Membrane potential optical (FRET/VIPR) assay, identification of potentiator compounds
Type: cell-based
Conditions: Table 3, assay not given; for % Activity: relative efficacy
From the text: I) Membrane Potential Optical Methods for Assaying ΔF508-CFTR Modulation Properties of Compounds The optical membrane potential assay utilized voltage-sensitive FRET sensors described by Gonzalez and Tsien (See, Gonzalez, J. E. and R. Y. Tsien (1995) “Voltage sensing by fluorescence resonance energy transfer in single cells” Biophys J 69(4): 1272-80, and Gonzalez, J. E. and R. Y. Tsien (1997) “Improved indicators of cell membrane potential that use fluorescence resonance energy transfer” Chem Biol 4(4): 269-77) in combination with instrumentation for measuring fluorescence changes such as the Voltage/Ion Probe Reader (VIPR) (See, […]. Oades, et al. (1999) “Cell-based assays and instrumentation for screening ion-channel targets” Drug Discov Today 4(9): 431-439). These voltage sensitive assays are based on the change in fluorescence resonant energy transfer (FRET) between the membrane-soluble, voltage-sensitive dye, DiSBAC2(3), and a fluorescent phospholipid, CC2-DMPE, which is attached to the outer leaflet of the plasma membrane and acts as a FRET donor. Changes in membrane potential (Vm) cause the negatively charged DiSBAC2(3) to redistribute across the plasma membrane and the amount of energy transfer from CC2-DMPE changes accordingly. The changes in fluorescence emission were monitored using VIPR which is an integrated liquid handler and fluorescent detector designed to conduct cell-based screens in 96- or 384-well microtiter plates. To identify potentiators of ΔF508-CFTR, a double-addition HTS assay format was developed. During the first addition, a Cl^--free medium with or without test compound was added to each well. […] (in mM) NaCl 160, KCl 4.5, CaCl2 2, MgCl2 1, HEPES 10, pH 7.4 with NaOH. • Chloride-free bath solution: Chloride salts in Bath Solution #1 are substituted with gluconate salts. • CC2-DMPE: Prepared as a 10 mM stock solution in DMSO and stored at -20° C. • DiSBAC2(3): Prepared as a 10 mM stock in DMSO and stored at -20° C. NIH3T3 mouse fibroblasts stably expressing ΔF508-CFTR are used for optical measurements of membrane potential. […] For all optical assays, the cells were seeded at 30,000/well in 384-well matrigel-coated plates and cultured for 2 hrs at 37° C. before culturing at 27° C. for 24 hrs. for the potentiator assay.

T1 sequence (P13569 with tags, fused parts or gaps DEL508-508): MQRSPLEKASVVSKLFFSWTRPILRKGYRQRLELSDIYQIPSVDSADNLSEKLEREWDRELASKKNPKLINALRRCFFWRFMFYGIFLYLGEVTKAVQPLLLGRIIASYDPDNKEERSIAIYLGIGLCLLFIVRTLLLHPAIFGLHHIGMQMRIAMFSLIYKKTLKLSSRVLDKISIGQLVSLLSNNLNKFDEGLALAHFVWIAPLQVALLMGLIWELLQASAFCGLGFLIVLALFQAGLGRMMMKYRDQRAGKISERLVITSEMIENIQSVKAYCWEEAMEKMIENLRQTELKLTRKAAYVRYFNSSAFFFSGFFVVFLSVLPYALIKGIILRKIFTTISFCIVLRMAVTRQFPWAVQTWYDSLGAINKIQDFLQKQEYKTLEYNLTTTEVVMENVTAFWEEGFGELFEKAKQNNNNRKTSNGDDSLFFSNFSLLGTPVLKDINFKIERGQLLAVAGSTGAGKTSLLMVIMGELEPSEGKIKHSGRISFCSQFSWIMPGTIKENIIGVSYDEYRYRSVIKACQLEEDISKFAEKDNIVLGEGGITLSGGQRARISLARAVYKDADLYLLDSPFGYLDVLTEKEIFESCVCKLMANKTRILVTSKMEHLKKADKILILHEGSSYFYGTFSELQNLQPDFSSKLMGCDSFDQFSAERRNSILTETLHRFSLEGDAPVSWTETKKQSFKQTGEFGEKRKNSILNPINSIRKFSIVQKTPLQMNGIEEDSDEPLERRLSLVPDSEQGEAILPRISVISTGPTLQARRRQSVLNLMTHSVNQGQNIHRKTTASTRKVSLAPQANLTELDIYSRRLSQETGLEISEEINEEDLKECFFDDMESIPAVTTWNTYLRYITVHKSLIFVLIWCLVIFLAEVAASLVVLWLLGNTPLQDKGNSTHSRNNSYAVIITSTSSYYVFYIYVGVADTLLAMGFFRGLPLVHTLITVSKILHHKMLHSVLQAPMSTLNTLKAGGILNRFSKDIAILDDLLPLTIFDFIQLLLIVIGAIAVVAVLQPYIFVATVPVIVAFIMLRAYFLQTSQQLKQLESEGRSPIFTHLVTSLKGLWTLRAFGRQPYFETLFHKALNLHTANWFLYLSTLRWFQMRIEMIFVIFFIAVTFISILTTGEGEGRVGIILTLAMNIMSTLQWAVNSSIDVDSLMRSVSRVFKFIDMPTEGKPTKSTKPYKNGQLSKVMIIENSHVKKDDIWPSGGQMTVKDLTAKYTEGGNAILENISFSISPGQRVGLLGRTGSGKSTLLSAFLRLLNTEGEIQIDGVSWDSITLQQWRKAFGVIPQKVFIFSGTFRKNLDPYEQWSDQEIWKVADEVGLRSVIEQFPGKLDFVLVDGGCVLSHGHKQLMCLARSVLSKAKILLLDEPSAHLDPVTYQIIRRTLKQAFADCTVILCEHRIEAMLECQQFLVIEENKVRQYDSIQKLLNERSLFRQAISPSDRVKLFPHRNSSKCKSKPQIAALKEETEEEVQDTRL

| Structure (SMILES) | EC50 | % Activity |
| --- | --- | --- |
| Cc1cccc2[nH]cc(C(=O)Nc3ccc(N4CCC(F)(F)C4)cc3C(F)(F)F)c(=O)c12 [Compound 528, N-[4-(3,3-difluoropyrrolidin-1-yl)-2-(trifluoromethyl)phenyl]-5-methyl-4-oxo-1H-quinoline-3-carboxamide] | < 10 µM | ++ (between 25% to 100%) |
| COC(=O)c1cccc(-c2cc(C(C)(C)C)c(O)cc2NC(=O)c2c[nH]c3ccccc3c2=O)c1 [Compound 231, 3-[4-hydroxy-2-[(4-oxo-1H-quinolin-3-yl)carbonylamino]-5-tert-butyl-phenyl]benzoic acid methyl ester] | < 10 µM | ++ (between 25% to 100%) |
| O=C(Nc1ccccc1N1CCOCC1)c1c[nH]c2ccccc2c1=O [Compound 4, N-(2-morpholinophenyl)-4-oxo-1H-quinoline-3-carboxamide] | < 10 µM | ++ (between 25% to 100%) |
| O=C(Nc1ccc(C2CCCCC2)c(O)c1)c1c[nH]c2cccc(O)c2c1=O [Compound 522, N-(4-cyclohexyl-3-hydroxy-phenyl)-5-hydroxy-4-oxo-1H-quinoline-3-carboxamide] | < 10 µM | ++ (between 25% to 100%) |
| COc1nc(NC(=O)c2c[nH]c3ccccc3c2=O)ccc1C(F)(F)F [Compound 571, N-[6-methoxy-5-(trifluoromethyl)-2-pyridyl]-4-oxo-1H-quinoline-3-carboxamide] | < 10 µM | + (<25%) |
| Cn1c(=O)oc2ccc(NC(=O)c3c[nH]c4ccccc4c3=O)cc21 [Compound 474, N-(3-methyl-2-oxo-3H-benzooxazol-5-yl)-4-oxo-1H-quinoline-3-carboxamide] | 25 to 60 µM | + (<25%) |
| CC(C)(C)C(=O)Nc1ccc(NC(=O)c2c[nH]c3ccccc3c2=O)c(C(F)(F)F)c1 [Compound 556, N-[4-(2,2-dimethylpropanoylamino)-2-(trifluoromethyl)phenyl]-4-oxo-1H-quinoline-3-carboxamide] | < 10 µM | ++ (between 25% to 100%) |
| COc1ccc2[nH]cc(C(=O)Nc3ccc(N4[C@H](C)CC[C@H]4C)cc3C(F)(F)F)c(=O)c2c1 [Compound 685, N-(4-((2R,5R)-2,5-dimethylpyrrolidin-1-yl)-2-(trifluoromethyl)phenyl)-6-methoxy-4-oxo-1,4-dihydroquinoline-3-carboxamide] | < 10 µM | ++ (between 25% to 100%) |
| CCc1ccc(NC)cc1NC(=O)c1c[nH]c2ccccc2c1=O [Compound 157, N-(2-ethyl-5-methylamino-phenyl)-4-oxo-1H-quinoline-3-carboxamide] | < 10 µM | ++ (between 25% to 100%) |
| CC(C)c1ccc(NC(=O)c2c[nH]c3c(F)cccc3c2=O)c(C(F)(F)F)c1 [Compound 573, 8-fluoro-N-[4-isopropyl-2-(trifluoromethyl)phenyl]-4-oxo-1H-quinoline-3-carboxamide] | < 10 µM | ++ (between 25% to 100%) |
| O=C(Nc1ccc2cc[nH]c2c1)c1c[nH]c2cccc(O)c2c1=O [Compound 116, 5-hydroxy-N-(1H-indol-6-yl)-4-oxo-1H-quinoline-3-carboxamide] | < 10 µM | ++ (between 25% to 100%) |
| O=C(Nc1cccc(OC(F)(F)F)c1)c1c[nH]c2ccccc2c1=O [Compound 62, 4-oxo-N-[3-(trifluoromethoxy)phenyl]-1H-quinoline-3-carboxamide] | < 10 µM | ++ (between 25% to 100%) |
| O=C(Nc1cc(N2CCCCC2)cc(C(F)(F)F)c1)c1c[nH]c2ccccc2c1=O [Compound 488, 4-oxo-N-[3-(1-piperidyl)-5-(trifluoromethyl)phenyl]-1H-quinoline-3-carboxamide] | < 10 µM | ++ (between 25% to 100%) |
| CCc1cccc(CC)c1NC(=O)c1c[nH]c2ccccc2c1=O [Compound 325, N-(2,6-diethylphenyl)-4-oxo-1H-quinoline-3-carboxamide] | < 10 µM | ++ (between 25% to 100%) |
| O=C1CSc2ccc(NC(=O)c3c[nH]c4ccccc4c3=O)cc2N1 [Compound 262, 1,4-dihydro-N-(3,4-dihydro-3-oxo-2H-benzo[b][1,4]thiazin-6-yl)-4-oxoquinoline-3-carboxamide] | < 10 µM | ++ (between 25% to 100%) |
| Cc1cccc2[nH]cc(C(=O)Nc3ccc(N4CC[C@H](F)C4)cc3C(F)(F)F)c(=O)c12 [Compound 626, (S)-N-(4-(3-fluoropyrrolidin-1-yl)-2-(trifluoromethyl)phenyl)-5-methyl-4-oxo-1,4-dihydroquinoline-3-carboxamide] | < 10 µM | ++ (between 25% to 100%) |
| O=C(Nc1ccc(C(F)(F)F)cc1N1CCCCC1)c1c[nH]c2ccccc2c1=O [Compound 514, 4-oxo-N-[2-(1-piperidyl)-4-(trifluoromethyl)phenyl]-1H-quinoline-3-carboxamide] | < 10 µM | ++ (between 25% to 100%) |
| CC(C)(C)c1cc(F)c(NC(=O)c2c[nH]c3cccc(F)c3c2=O)cc1O [Compound 610, 5-fluoro-N-(2-fluoro-5-hydroxy-4-tert-butyl-phenyl)-4-oxo-1H-quinoline-3-carboxamide] | < 10 µM | ++ (between 25% to 100%) |

Other lines, results leading:

| EC50 | % Activity | Structure (SMILES) |
| --- | --- | --- |
| < 10 µM | +++ (>100%) | COc1ccc(-c2ccccc2NC(=O)c2c[nH]c3ccccc3c2=O)cc1 [Compound 305, N-[2-(4-methoxyphenyl)phenyl]-4-oxo-1H-quinoline-3-carboxamide] |
| < 10 µM | ++ (between 25% to 100%) | O=C(Nc1ccc(F)cc1)c1c[nH]c2ccccc2c1=O [Compound 198, N-(4-fluorophenyl)-4-oxo-1H-quinoline-3-carboxamide] |
| < 10 µM | ++ (between 25% to 100%) | O=C(Nc1cccnc1Oc1ccc(F)cc1)c1c[nH]c2ccccc2c1=O [Compound 147, N-[2-(4-fluorophenoxy)-3-pyridyl]-4-oxo-1H-quinoline-3-carboxamide] |
| < 10 µM | ++ (between 25% to 100%) | Cc1cccc(Oc2ncccc2NC(=O)c2c[nH]c3ccccc3c2=O)c1C [Compound 206, N-[2-(2,3-dimethylphenoxy)-3-pyridyl]-4-oxo-1H-quinoline-3-carboxamide] |
| < 10 µM | ++ (between 25% to 100%) | CC(C)(C)c1ccc(NC(=O)c2c[nH]c3ccccc3c2=O)c(Cl)c1 [Compound 362, N-(2-chloro-4-tert-butyl-phenyl)-4-oxo-1H-quinoline-3-carboxamide] |
| < 10 µM | ++ (between 25% to 100%) | CC(C)(C)c1cccc(NC(=O)c2c[nH]c3ccccc3c2=O)c1 [Compound 602, 4-oxo-N-(3-tert-butylphenyl)-1H-quinoline-3-carboxamide] |
| – | ++ (between 25% to 100%) | O=C(Nc1ccccc1-c1ccc2[nH]ccc2c1)c1c[nH]c2ccccc2c1=O [Compound 118, N-[2-(1H-indol-5-yl)phenyl]-4-oxo-1H-quinoline-3-carboxamide] |
| 10 to 25 µM | ++ (between 25% to 100%) | Cc1ccc(NC(=O)c2c[nH]c3ccccc3c2=O)cc1N [Compound 167, N-(3-amino-4-methyl-phenyl)-4-oxo-1H-quinoline-3-carboxamide] |
| – | ++ (between 25% to 100%) | O=C(Nc1ccccc1-c1ccncc1)c1c[nH]c2ccccc2c1=O [Compound 70, 4-oxo-N-[2-(4-pyridyl)phenyl]-1H-quinoline-3-carboxamide] |
| < 10 µM | ++ (between 25% to 100%) | COc1cccc(OC)c1-c1cc2cc[nH]c2cc1NC(=O)c1c[nH]c2ccccc2c1=O [Compound 404, N-[5-(2,6-dimethoxyphenyl)-1H-indol-6-yl]-4-oxo-1H-quinoline-3-carboxamide] |
| < 10 µM | ++ (between 25% to 100%) | O=C(Nc1ccccc1Oc1ncc(C(F)(F)F)cc1Cl)c1c[nH]c2ccccc2c1=O [Compound 42, N-[2-[[3-chloro-5-(trifluoromethyl)-2-pyridyl]oxy]phenyl]-4-oxo-1H-quinoline-3-carboxamide] |
| < 10 µM | ++ (between 25% to 100%) | O=C(Nc1ccccc1-c1cccc(Cl)c1)c1c[nH]c2ccccc2c1=O [Compound 307, N-[2-(3-chlorophenyl)phenyl]-4-oxo-1H-quinoline-3-carboxamide] |
| < 10 µM | ++ (between 25% to 100%) | CCOc1ccccc1-c1cc2cc[nH]c2cc1NC(=O)c1c[nH]c2ccccc2c1=O [Compound 327, N-[5-(2-ethoxyphenyl)-1H-indol-6-yl]-4-oxo-1H-quinoline-3-carboxamide] |
